Test results as given in ChEMBL document CHEMBL1201862, “PubChem BioAssay data set” (2004).
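All cell lines were grown in 96-well plates and treated with compound for 48 hours. The concentration for 50% growth inhibition is given as GI50.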 The source made the active and inactive calls. Cut-off read from the data, not from the text of the source: active = GI50 up to about 1.1 µM and inactive = higher.

Columns and labels:
Assay in all cases: inhibition of tumour cell growth, NCI panel, 48 h
HL-60 = test system: HL-60
NCI-H23 = test system: NCI-H23
COLO 205 = test system: COLO 205
U-251 = test system: U-251
SN12C = test system: SN12C
ACHN = test system: ACHN
HCT-116 = test system: HCT-116
SW-620 = test system: SW-620
NCI-H226 = test system: NCI-H226
K562 = test system: K562
OVCAR-4 = test system: OVCAR-4
HOP-92 = test system: HOP-92
MOLT-4 = test system: MOLT-4
LOX IMVI = test system: LOX IMVI
SF-268 = test system: SF-268

Measured: GI50

COc1ccc2c(c1)[n+]([O-])c(C(N)=O)c(N)[n+]2[O-]
inactive: HL-60 40.8 µM | NCI-H23 28.8 µM | COLO 205 24.4 µM | U-251 86.7 µM | SN12C > 100 µM | ACHN > 100 µM | HCT-116 > 100 µM | SW-620 57.9 µM | NCI-H226 > 100 µM | K562 > 100 µM | OVCAR-4 > 100 µM | HOP-92 > 100 µM

O=[N+]([O-])c1cc2c(cc1O)[nH]c1cccc([N+](=O)[O-])c12
inactive: HL-60 > 100 µM | MOLT-4 > 100 µM | LOX IMVI > 100 µM | NCI-H23 > 100 µM | COLO 205 > 100 µM | SN12C > 100 µM | ACHN > 100 µM | HCT-116 > 100 µM | SW-620 > 100 µM | SF-268 > 100 µM | NCI-H226 > 100 µM | K562 > 100 µM | OVCAR-4 > 100 µM

CCOC(=O)C/C(=N\c1cc(C)on1)N(CC)CC.[O-][Cl+3]([O-])([O-])O
inactive: MOLT-4 > 100 µM | NCI-H23 > 100 µM | COLO 205 > 100 µM | U-251 > 100 µM | SN12C > 100 µM | ACHN > 100 µM | HCT-116 > 100 µM | SW-620 > 100 µM | SF-268 > 100 µM | NCI-H226 > 100 µM | K562 > 100 µM | HOP-92 > 100 µM

c1ccc2cc(-c3cc4ccccc4s3)ccc2c1
inactive: HL-60 > 100 µM | MOLT-4 38.2 µM | LOX IMVI > 100 µM | NCI-H23 > 100 µM | COLO 205 > 100 µM | U-251 > 100 µM | SN12C > 100 µM | ACHN > 100 µM | HCT-116 > 100 µM | SW-620 > 100 µM | SF-268 > 100 µM | NCI-H226 > 100 µM | K562 > 100 µM | OVCAR-4 > 100 µM | HOP-92 > 100 µM

CC(=O)CC(=O)CCCC(=O)Nc1ccc(Cl)cc1C
inactive: HL-60 > 100 µM | MOLT-4 > 100 µM | LOX IMVI > 100 µM | NCI-H23 > 100 µM | COLO 205 > 100 µM | U-251 > 100 µM | SN12C > 100 µM | ACHN > 100 µM | HCT-116 > 100 µM | SW-620 > 100 µM | SF-268 > 100 µM | NCI-H226 > 100 µM | K562 > 100 µM | OVCAR-4 > 100 µM | HOP-92 > 100 µM
